This is an account of results in ChEMBL document CHEMBL5126640, “Sanggenon C Suppresses Tumorigenesis of Gastric Cancer by Blocking ERK-Drp1-Mediated Mitochondrial Fission” (J Nat Prod, 2022).

Calls of active or inactive are those of the source. The calls are words filed in the database; no cut-off is given here.

For data set [1], the system named is AGS. As to the kind of experiment: Antiproliferative activity against human AGS cells assessed as reduction in cell growth measured after 24 hrs by CCK8 assay. The format is functional, cell-based. (Formazan colour is commonly taken as a measure of viable cells.)
Data set [2] has as its system AGS. Nature of the data set: Inhibition of colony formation of human AGS cells assessed as reduction in colony number at 0 to 10 uM measured after 24 hrs by crystal violet staining assay. Format: functional, cell-based. The conditions noted are these: dose 0-10 µM.
In data set [3] the test system is HGC-27. As to the kind of experiment: Induction of cell cycle arrest in human HGC-27 cells assessed as decrease in Cyclin D1 level at 0 to 10 uM by Western blot analysis. The format is functional, cell-based. The note with it: dose 0-10 µM.
In data set [4] the test system is HGC-27. As to the kind of experiment: Induction of apoptosis in human HGC-27 cells assessed as early apoptotic cells at 10 uM measured after 24 hrs by AnnexinV-FITC/PI staining based flowcytometry method (reference value: 3.3%). Format: functional.
Data set [5] concerns HGC-27. As to the kind of experiment: Induction of apoptosis in human HGC-27 cells assessed as necrotic cells at 8 uM measured after 24 hrs by AnnexinV-FITC/PI staining based flowcytometry method (reference value: 0.2%). The format is functional.
Data set [6] concerns HGC-27. Nature of the data set: Induction of apoptosis in human HGC-27 cells assessed as necrotic cells at 10 uM measured after 24 hrs by AnnexinV-FITC/PI staining based flowcytometry method (reference value: 0.2%). The format is functional.
Data set [7] concerns HGC-27. Nature of the data set: Induction of apoptosis in human HGC-27 cells assessed as increase in cleaved caspase-9 level at 0 to 10 uM by Western blot analysis. The format is functional, cell-based. The conditions noted are these: dose 0-10 µM. On the technique in general: In western blotting, separated proteins are transferred to a membrane and probed.
Data set [8] relates to AGS. Nature of the data set: Induction of apoptosis in human AGS cells assessed as increase in cleaved caspase-3 level at 0 to 10 uM by Western blot analysis. The note with it: dose 0-10 µM. The format is functional, cell-based.
The subject of data set [9] is AGS. As to the kind of experiment: Induction of mitochondrial dysfunction in human AGS cells assessed as decrease in mitochondrial membrane potential measured after 24 hrs by JC-1 staining based flow cytometry. The format is functional, cell-based. The conditions noted are these: DDE = dose-dependent effect. A general note: In flow cytometry, cells or beads pass a laser one at a time.

Data set [10] deals with AGS. Nature of the data set: Induction of apoptosis in human AGS cells assessed as upregulation of Bax level at 0 to 10 uM by Western blot analysis. Format: functional, cell-based. The conditions noted are these: dose 0-10 µM.
For data set [11], the system named is AGS. As to the kind of experiment: Induction of apoptosis in human AGS cells assessed as early apoptotic cells measured after 24 hrs by AnnexinV-FITC/PI staining based flow cytometry method (reference value: 2%). Format: functional.
Data set [12] relates to HGC-27. As to the kind of experiment: Induction of apoptosis in human HGC-27 cells transfected with pcDNA3.1-Drp1 plasmid to overexpress DRP1 assessed as early apoptotic cells measured after 24 hrs by AnnexinV-FITC/PI staining based flow cytometry method (reference value: 2.1%). The format is functional.
In data set [13] the test system is AGS. As to the kind of experiment: Induction of apoptosis in human AGS cells transfected with pcDNA3.1-Drp1 plasmid to overexpress DRP1 assessed as early apoptotic cells and measured after 24 hrs by AnnexinV-FITC/PI staining based flow cytometry method (reference value: 2.1 %). Format: functional.
A short description of data set [14]: Toxicity in nude mouse xenografted with human AGS cells assessed as effect on alanine aminotransferase level at 10 to 20 mg/kg, ip administered every other day and monitored every 3 days. Format: organism-based. The conditions noted are these: in vivo, 72 h, dose 10-20 mg/kg, time 3 day.
In a further data set the test system is Mus musculus. As to the kind of experiment: In vivo inhibition of ERK signalling pathway in nude mouse xenografted with human AGS cells assessed as downregulation of p-ERK levels at 10 to 20 mg/kg, ip administered every other day and monitored every 3 days by western blot analysis. Format: functional, organism-based. The note with it: dose 10-20 mg/kg, time 3.0 day.

In general, IC50 refers to the concentration at which inhibition is half-maximal. As to `CC(C)=CCC12Oc3cc(O)ccc3C1(O)Oc1cc(O)c([C@H]3C=C(C)C[C@H](c4ccc(O)cc4O)[C@H]3C(=O)c3ccc(O)cc3O)c(O)c1C2=O` (stereo not given in full), the IC50 in the data set on AGS [1] came to 9.86 µM. Also, the inhibition result in the data set with AGS [2] and in the data set with Mus musculus was “Active” each time. The outcome with HGC-27 [3], in the data set on HGC-27 [7], with AGS [8] and in the data set with AGS [10] was Active. The Activity in the data set on HGC-27 [4] was 10.3%; in the data set on HGC-27 [5], 1.8%; with HGC-27 [6], 1.3%; in the data set on AGS [9] it was “Dde”; in the data set on AGS [11] it was 3.5%; with HGC-27 [12], 2.4%. The values for the Activity (with AGS [13]; in [14]) were 2.8% and “Non-Toxic”, respectively.
